Reference: PubChem BioAssay AID2060619 (Molecular Pharmacology Branch, DTP, NCI, 2025)

Test system: 323965-272-R-J2-PDC complex spheroid viability
Experiment: Anticancer human tumor 323965-272-R-J2-PDC patient-derived pancreatic carcinoma cell line growth inhibition [CLK]
Details: for IC50: curve of first compound; for viability, T/C: stronger effect = lower value
Outline: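 Multi-cell-type spheroids combined patient-derived tumor cells with HUVEC endothelial cells and human mesenchymal stem cells. Paired agents were dosed in half-log steps down from about clinical Cmax, or from 10 microM where Cmax was unknown.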

[1] = second compound 0.0316 µM, first compound 0.00949 µM
[2] = second compound 0.0316 µM, first compound 0.03 µM
[3] = second compound 0.0316 µM, first compound 0.0949 µM
[4] = second compound 0.0316 µM, first compound 0.3 µM
[5] = second compound 0.1 µM, first compound 0.00949 µM
[6] = second compound 0.1 µM, first compound 0.03 µM
[7] = second compound 0.1 µM, first compound 0.0949 µM
[8] = second compound 0.1 µM, first compound 0.3 µM
[9] = second compound 0.316 µM, first compound 0.00949 µM
[10] = second compound 0.316 µM, first compound 0.03 µM
[11] = second compound 0.316 µM, first compound 0.0949 µM
[12] = second compound 0.316 µM, first compound 0.3 µM
[13] = second compound 1 µM, first compound 0.00949 µM
[14] = second compound 1 µM, first compound 0.03 µM
[15] = second compound 1 µM, first compound 0.0949 µM
[16] = second compound 1 µM, first compound 0.3 µM
[17] = second compound 3.16 µM, first compound 0.00949 µM
[18] = second compound 3.16 µM, first compound 0.03 µM
[19] = second compound 3.16 µM, first compound 0.0949 µM
[20] = second compound 3.16 µM, first compound 0.3 µM
[21] = second compound 10 µM, first compound 0.00949 µM
[22] = second compound 10 µM, first compound 0.03 µM
[23] = second compound 10 µM, first compound 0.0949 µM
[24] = second compound 10 µM, first compound 0.3 µM
[25] = second compound 0.0316 µM, first compound 0.0316 µM
[26] = second compound 0.0316 µM, first compound 0.1 µM
[27] = second compound 0.0316 µM, first compound 0.316 µM
[28] = second compound 0.0316 µM, first compound 1 µM
[29] = second compound 0.0316 µM, first compound 3.16 µM
[30] = second compound 0.0316 µM, first compound 10 µM
[31] = second compound 0.1 µM, first compound 0.0316 µM
[32] = second compound 0.1 µM, first compound 0.1 µM
[33] = second compound 0.1 µM, first compound 0.316 µM
[34] = second compound 0.1 µM, first compound 1 µM
[35] = second compound 0.1 µM, first compound 3.16 µM
[36] = second compound 0.1 µM, first compound 10 µM
[37] = second compound 0.316 µM, first compound 0.0316 µM
[38] = second compound 0.316 µM, first compound 0.1 µM
[39] = second compound 0.316 µM, first compound 0.316 µM
[40] = second compound 0.316 µM, first compound 1 µM
[41] = second compound 0.316 µM, first compound 3.16 µM
[42] = second compound 0.316 µM, first compound 10 µM
[43] = second compound 1 µM, first compound 0.0316 µM
[44] = second compound 1 µM, first compound 0.1 µM
[45] = second compound 1 µM, first compound 0.316 µM
[46] = second compound 1 µM, first compound 1 µM
[47] = second compound 1 µM, first compound 3.16 µM
[48] = second compound 1 µM, first compound 10 µM
[49] = second compound 3.16 µM, first compound 0.0316 µM
[50] = second compound 3.16 µM, first compound 0.1 µM
[51] = second compound 3.16 µM, first compound 0.316 µM
[52] = second compound 3.16 µM, first compound 1 µM
[53] = second compound 3.16 µM, first compound 3.16 µM
[54] = second compound 3.16 µM, first compound 10 µM
[55] = second compound 10 µM, first compound 0.0316 µM
[56] = second compound 10 µM, first compound 0.1 µM
[57] = second compound 10 µM, first compound 0.316 µM
[58] = second compound 10 µM, first compound 1 µM
[59] = second compound 10 µM, first compound 3.16 µM
[60] = second compound 10 µM, first compound 10 µM
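Also: spheroids exposed to agents for seven days before readout.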
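For viability, T/C in this document: percent of DMSO vehicle control wells so 100% = untreated growth.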

C=CC(=O)Nc1cc(Nc2nccc(-c3cn(C)c4ccccc34)n2)c(OC)cc1N(C)CCN(C)C + CN1CCN(c2cc(C(=O)Nc3cc4cc(-c5cnn(C)c5)ccc4cn3)ccn2)CC1
IC50 (second compound 0.0316 µM): > 0.3 µM | IC50 (second compound 0.1 µM): > 0.3 µM | IC50 (second compound 0.316 µM): < 0.000949 µM | IC50 (second compound 1 µM): < 0.000949 µM | IC50 (second compound 3.16 µM): < 0.000949 µM | IC50 (second compound 10 µM): < 0.000949 µM | viability, T/C (second compound 0.0316 µM, first compound 0.000949 µM): 92.1% | viability, T/C (second compound 0.0316 µM, first compound 0.003 µM): 86.8% | viability, T/C [1]: 89.3% | viability, T/C [2]: 89.6% | viability, T/C [3]: 82% | viability, T/C [4]: 75.8% | viability, T/C (second compound 0.1 µM, first compound 0.000949 µM): 73.2% | viability, T/C (second compound 0.1 µM, first compound 0.003 µM): 76.4% | viability, T/C [5]: 59.1% | viability, T/C [6]: 61.8% | viability, T/C [7]: 52.2% | viability, T/C [8]: 51.4% | viability, T/C (second compound 0.316 µM, first compound 0.000949 µM): 21.9% | viability, T/C (second compound 0.316 µM, first compound 0.003 µM): 26.8% | viability, T/C [9]: 21.4% | viability, T/C [10]: 19.1% | viability, T/C [11]: 17.7% | viability, T/C [12]: 17.3% | viability, T/C (second compound 1 µM, first compound 0.000949 µM): 3.35% | viability, T/C (second compound 1 µM, first compound 0.003 µM): 2.76% | viability, T/C [13]: 7.03% | viability, T/C [14]: 2.91% | viability, T/C [15]: 2.48% | viability, T/C [16]: 2.38% | viability, T/C (second compound 3.16 µM, first compound 0.000949 µM): 3.68% | viability, T/C (second compound 3.16 µM, first compound 0.003 µM): 3.94% | viability, T/C [17]: 5.04% | viability, T/C [18]: 2.7% | viability, T/C [19]: 2.6% | viability, T/C [20]: 3.13% | viability, T/C (second compound 10 µM, first compound 0.000949 µM): 4.03% | viability, T/C (second compound 10 µM, first compound 0.003 µM): 4.64% | viability, T/C [21]: 4.92% | viability, T/C [22]: 3.05% | viability, T/C [23]: 2.71% | viability, T/C [24]: 3.08%

CC1(C)CCC(CN2CCN(c3ccc(C(=O)NS(=O)(=O)c4ccc(NCC5CCOCC5)c([N+](=O)[O-])c4)c(Oc4cnc5[nH]ccc5c4)c3)CC2)=C(c2ccc(Cl)cc2)C1 + CN1CCN(c2cc(C(=O)Nc3cc4cc(-c5cnn(C)c5)ccc4cn3)ccn2)CC1
IC50 (second compound 0.0316 µM): 4.96 µM | IC50 (second compound 0.1 µM): 3.6 µM | IC50 (second compound 0.316 µM): < 0.0316 µM | IC50 (second compound 1 µM): < 0.0316 µM | IC50 (second compound 3.16 µM): < 0.0316 µM | IC50 (second compound 10 µM): < 0.0316 µM | viability, T/C [25]: 91.3% | viability, T/C [26]: 97.7% | viability, T/C [27]: 93.8% | viability, T/C [28]: 92.2% | viability, T/C [29]: 78.8% | viability, T/C [30]: 5.11% | viability, T/C [31]: 69.6% | viability, T/C [32]: 63.8% | viability, T/C [33]: 65.4% | viability, T/C [34]: 68.5% | viability, T/C [35]: 55.8% | viability, T/C [36]: 5.08% | viability, T/C [37]: 27.8% | viability, T/C [38]: 24.5% | viability, T/C [39]: 28.6% | viability, T/C [40]: 27.1% | viability, T/C [41]: 20.2% | viability, T/C [42]: 4.31% | viability, T/C [43]: 3.4% | viability, T/C [44]: 3.32% | viability, T/C [45]: 4.86% | viability, T/C [46]: 2.95% | viability, T/C [47]: 2.45% | viability, T/C [48]: 2.47% | viability, T/C [49]: 3.55% | viability, T/C [50]: 3.34% | viability, T/C [51]: 3.03% | viability, T/C [52]: 2.11% | viability, T/C [53]: 1.06% | viability, T/C [54]: 0.14% | viability, T/C [55]: 4.06% | viability, T/C [56]: 3.26% | viability, T/C [57]: 3.77% | viability, T/C [58]: 2.06% | viability, T/C [59]: 0.92% | viability, T/C [60]: 3.22%

NC(=O)C(=Cn1cnc(-c2cc(C(F)(F)F)cc(C(F)(F)F)c2)n1)c1cncnc1 + CN1CCN(c2cc(C(=O)Nc3cc4cc(-c5cnn(C)c5)ccc4cn3)ccn2)CC1
IC50 (second compound 0.0316 µM): 0.907 µM | IC50 (second compound 0.1 µM): 0.365 µM | IC50 (second compound 0.316 µM): < 0.00949 µM | IC50 (second compound 1 µM): < 0.00949 µM | IC50 (second compound 3.16 µM): < 0.00949 µM | IC50 (second compound 10 µM): < 0.00949 µM | viability, T/C [1]: 99.5% | viability, T/C [2]: 100% | viability, T/C [3]: 71.5% | viability, T/C [4]: 58.4% | viability, T/C (second compound 0.0316 µM, first compound 0.949 µM): 59.3% | viability, T/C (second compound 0.0316 µM, first compound 3 µM): 30% | viability, T/C [5]: 67.1% | viability, T/C [6]: 64.7% | viability, T/C [7]: 60.4% | viability, T/C [8]: 52.1% | viability, T/C (second compound 0.1 µM, first compound 0.949 µM): 38.6% | viability, T/C (second compound 0.1 µM, first compound 3 µM): 17% | viability, T/C [9]: 23.6% | viability, T/C [10]: 24% | viability, T/C [11]: 20.3% | viability, T/C [12]: 12.3% | viability, T/C (second compound 0.316 µM, first compound 0.949 µM): 5.84% | viability, T/C (second compound 0.316 µM, first compound 3 µM): 1.04% | viability, T/C [13]: 2.31% | viability, T/C [14]: 2.24% | viability, T/C [15]: 4.13% | viability, T/C [16]: 2.36% | viability, T/C (second compound 1 µM, first compound 0.949 µM): 1.39% | viability, T/C (second compound 1 µM, first compound 3 µM): 0.76% | viability, T/C [17]: 2.18% | viability, T/C [18]: 4.18% | viability, T/C [19]: 3.49% | viability, T/C [20]: 1.2% | viability, T/C (second compound 3.16 µM, first compound 0.949 µM): 0.81% | viability, T/C (second compound 3.16 µM, first compound 3 µM): 1.01% | viability, T/C [21]: 2.14% | viability, T/C [22]: 1.92% | viability, T/C [23]: 1.56% | viability, T/C [24]: 1.44% | viability, T/C (second compound 10 µM, first compound 0.949 µM): 2% | viability, T/C (second compound 10 µM, first compound 3 µM): 0.3%

Nc1ccccc1NC(=O)c1ccc(CNC(=O)OCc2cccnc2)cc1 + CN1CCN(c2cc(C(=O)Nc3cc4cc(-c5cnn(C)c5)ccc4cn3)ccn2)CC1
IC50 (second compound 0.0316 µM): 6.96 µM | IC50 (second compound 0.1 µM): 3 µM | IC50 (second compound 0.316 µM): < 0.0316 µM | IC50 (second compound 1 µM): < 0.0316 µM | IC50 (second compound 3.16 µM): < 0.0316 µM | IC50 (second compound 10 µM): < 0.0316 µM | viability, T/C [25]: 92.1% | viability, T/C [26]: 92.3% | viability, T/C [27]: 93.6% | viability, T/C [28]: 99% | viability, T/C [29]: 63.5% | viability, T/C [30]: 43.8% | viability, T/C [31]: 79% | viability, T/C [32]: 75.9% | viability, T/C [33]: 80% | viability, T/C [34]: 78.7% | viability, T/C [35]: 48.6% | viability, T/C [36]: 30.6% | viability, T/C [37]: 26.4% | viability, T/C [38]: 24.6% | viability, T/C [39]: 21.4% | viability, T/C [40]: 21.8% | viability, T/C [41]: 17.1% | viability, T/C [42]: 16.8% | viability, T/C [43]: 3.43% | viability, T/C [44]: 3.41% | viability, T/C [45]: 4.13% | viability, T/C [46]: 2.18% | viability, T/C [47]: 2.06% | viability, T/C [48]: 0.81% | viability, T/C [49]: 3.66% | viability, T/C [50]: 5.59% | viability, T/C [51]: 6.21% | viability, T/C [52]: 4.43% | viability, T/C [53]: 2.9% | viability, T/C [54]: 3.42% | viability, T/C [55]: 3.69% | viability, T/C [56]: 4.56% | viability, T/C [57]: 5.4% | viability, T/C [58]: 4.41% | viability, T/C [59]: 4.37% | viability, T/C [60]: 2.69%
